Test results published in patent US20160297833A1, “THIENOPYRIMIDINES AS MKNK1 AND MKNK2 INHIBITORS” (BAYER PHARMA AKTIENGESELLSCHAFT, priority 2013, published 2016).

Target: T1, human full-length MKNK1 (Homo sapiens, UniProt Q9BUB5, T385D)
T1 construct: GST (N); purchased Carna Biosciences 02-145; host or cells: insect cells (baculovirus expression system)
Assay: MKNK1 kinase high ATP assay (TR-FRET)
Assay type: biochemical
Conditions: Table 1; MKNK1 kinase high ATP assay, 2 mM ATP; read-out: MKNK1 IC50
In short: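 Full-length human MKNK1 (T385D) preincubated 15 min at 22 °C with compound in HEPES pH 7.5/MgCl2/DTT buffer; reaction with 2 mM ATP (final) and 0.06 μM biotinylated peptide (final), 30 min at 22 °C.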

T1 sequence (Q9BUB5 1-424 isoform Q9BUB5-2 T344D): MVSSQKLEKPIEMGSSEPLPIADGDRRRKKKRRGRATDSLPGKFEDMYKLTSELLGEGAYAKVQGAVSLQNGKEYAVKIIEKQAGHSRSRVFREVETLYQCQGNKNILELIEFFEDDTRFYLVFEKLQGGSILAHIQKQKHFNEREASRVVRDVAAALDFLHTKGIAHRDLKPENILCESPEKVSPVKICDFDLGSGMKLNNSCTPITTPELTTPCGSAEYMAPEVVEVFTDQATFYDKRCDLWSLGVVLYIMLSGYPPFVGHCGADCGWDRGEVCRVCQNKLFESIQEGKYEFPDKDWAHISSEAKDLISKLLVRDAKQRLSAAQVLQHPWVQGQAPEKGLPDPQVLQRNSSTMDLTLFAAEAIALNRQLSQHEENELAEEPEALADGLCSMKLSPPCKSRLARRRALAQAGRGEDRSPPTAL

SMILES	IC50 [pM]
COc1cc2[nH]ncc2cc1Nc1ncnc2sc3c(c12)CC[C@H](C(=O)N1CC2CC2C1)C3 (stereo partly drawn) [Example 209, 3-Azabicyclo[3.1.0]hex-3-yl{(7S)-4-[(6-methoxy-1H-indazol-5-yl)amino]-5,6,7,8-tetrahydro[1]benzothieno[2,3-d]pyrimidin-7-yl}methanone]	500
COc1cc2[nH]ncc2cc1Nc1ncnc2sc3c(c12)CC[C@H](C(=O)N1C[C@@H](C)O[C@H](C)C1)C3 [Example 211, [(2R,6R)-2,6-Dimethylmorpholin-4-yl]{(7S)-4-[(6-methoxy-1H-indazol-5-yl)amino]-5,6,7,8-tetrahydro[1]benzothieno[2,3-d]pyrimidin-7-yl}methanone]	200
COc1cc2[nH]ncc2cc1Nc1ncnc2sc3c(c12)CC[C@H](C(=O)N1CCCCO1)C3 [Example 212, {(7S)-4-[(6-Methoxy-1H-indazol-5-yl)amino]-5,6,7,8-tetrahydro[1]benzothieno[2,3-d]pyrimidin-7-yl}(1,2-oxazinan-2-yl)methanone]	300
COc1cc2[nH]ncc2cc1Nc1ncnc2sc3c(c12)CC[C@H](C(=O)N(C)S(C)(=O)=O)C3 [Example 216, (7S)-4-[(6-Methoxy-1H-indazol-5-yl)amino]-N-methyl-N-(methylsulfonyl)-5,6,7,8-tetrahydro[1]benzothieno[2,3-d]pyrimidine-7-carboxamide]	500
COCCN(C)C(=O)[C@H]1CCc2c(sc3ncnc(Nc4cc5cn[nH]c5cc4OC)c23)C1 [Example 217, (7S)—N-(2-Methoxyethyl)-4-[(6-methoxy-1H-indazol-5-yl)amino]-N-methyl-5,6,7,8-tetrahydro[1]benzothieno[2,3-d]pyrimidine-7-carboxamide]	300

Next, values leading:

IC50 [pM]	SMILES
600	COc1cc2[nH]ncc2cc1Nc1ncnc2sc3c(c12)CC[C@H](C(=O)N1CCC(F)(F)C1)C3 [Example 208, (3,3-Difluoropyrrolidin-1-yl){(7S)-4-[(6-methoxy-1H-indazol-5-yl)amino]-5,6,7,8-tetrahydro[1]benzothieno[2,3-d]pyrimidin-7-yl}methanone]
400	COc1cc2[nH]ncc2cc1Nc1ncnc2sc3c(c12)CC[C@H](C(=O)N1C[C@H](C)O[C@@H](C)C1)C3 [Example 210, [(2S,6S)-2,6-Dimethylmorpholin-4-yl]{(7S)-4-[(6-methoxy-1H-indazol-5-yl)amino]-5,6,7,8-tetrahydro[1]benzothieno[2,3-d]pyrimidin-7-yl}methanone]
400	COc1cc2[nH]ncc2cc1Nc1ncnc2sc3c(c12)CC[C@H](C(=O)N1CCCO1)C3 [Example 213, {(7S)-4-[(6-Methoxy-1H-indazol-5-yl)amino]-5,6,7,8-tetrahydro[1]benzothieno[2,3-d]pyrimidin-7-yl}(1,2-oxazolidin-2-yl)methanone]
1200	CCON(C)C(=O)[C@H]1CCc2c(sc3ncnc(Nc4cc5cn[nH]c5cc4OC)c23)C1 [Example 214, (7S)—N-Ethoxy-4-[(6-methoxy-1H-indazol-5-yl)amino]-N-methyl-5,6,7,8-tetrahydro[1]benzothieno[2,3-d]pyrimidine-7-carboxamide]
1000	COc1cc2[nH]ncc2cc1Nc1ncnc2sc3c(c12)CC[C@H](C(=O)N(C)CCC(C)(C)O)C3 [Example 215, (7S)—N-(3-Hydroxy-3-methylbutyl)-4-[(6-methoxy-1H-indazol-5-yl)amino]-N-methyl-5,6,7,8-tetrahydro[1]benzothieno[2,3-d]pyrimidine-7-carboxamide]
200	CCOc1cc2[nH]ncc2cc1Nc1ncnc2sc3c(c12)CC[C@H](C(=O)N1CC(N(C)C)C1)C3 [Example 218, [3-(Dimethylamino)azetidin-1-yl]{(7S)-4-[(6-ethoxy-1H-indazol-5-yl)amino]-5,6,7,8-tetrahydro[1]benzothieno[2,3-d]pyrimidin-7-yl}methanone]
